Entries after “also recorded” stand apart in the source; their conditions may differ.
Legend:
Type in all cases: physicochemical
[1] = Spectral characteristics: molar extinction coefficient and specific absorbance (UV spectrophotometry in ethyl acetate); conditions: 10 μg/ml; for Maximum molar extinction coefficient UVA / Maximum specific absorbance UVA: UVA band; for Maximum molar extinction coefficient UVB / Maximum specific absorbance UVB: UVB band; for Maximum specific absorbance UVA / Maximum specific absorbance UVB: A1cm^1%; for Wavelength of maximum molar extinction coefficient UVA / Wavelength of maximum molar extinction coefficient UVB / Wavelength of maximum specific absorbance UVA / Wavelength of maximum specific absorbance UVB: the 'at ...' part of the cell
Excerpt: The calculation of the molar extinction coefficient (ε) is made from the Beer-Lambert law:
[formula] Wherein: • A=absorbance • I0=intensity of the incident light • I=intensity of the transmitted light • ε=molar extinction (or molar absorbance) coefficient in M^−1 cm^−1 • l=path length in cm • c=concentration in mol/l
The molar extinction coefficient can be expressed with respect to a given mass of the product. It thus makes it possible to be able to compare the coefficients of extinction between products for the same given quantity. This quantity is 1% by weight. The molar extinction coefficient thus becomes the specific absorbance (A1cm^1%).
It is expressed as follows:
[formula] Wherein: • A1cm^1%=specific absorbance • ε=molar extinction coefficient • M=molar mass
The spectral characteristics of the compounds in comparison with commercial filters at a concentration of 10 μg/ml are summarized in tables 2-1 and 2-2.
Procedure: The products are dissolved in ethyl acetate to a concentration of 10 μg/ml. The spectra are measured using a dual-beam spectrophotometer (Varian CARY 50 Scan) between 290 nm and 400 nm.

[2] = Spectral distribution in UVA and UVB, 290 nm to 400 nm; conditions: for Spectral distribution (UV bands absorbed): absorption spectra, FIGS. 1-3; for Absorption peaks: range from 290 nm to 400 nm
Excerpt: The products tested are classified according to spectral distribution in UVA and UVB in a range from 290 nm to 400 nm. It is possible to differentiate them according to their spectral distribution: Products with a narrow spectrum: • Products absorbing in the range between 280 nm and 320 nm (UVB) • Products absorbing in the range between 320 nm and 400 nm (UVA) Products with a broad spectrum: • Products absorbing in UVB (280-320 nm) and UVA-II […] • Products covering UVB and UVA (280-400 nm).

[3] = Solubility study in solvents or excipients used in cosmetics; conditions: for Solubilities: Soluble, DMSO: solvent DMSO; for Solubilities: Soluble, Transcutol: solvent Transcutol; for Solubilities: Soluble (solvent in which the compound is soluble): value = solvent; for Solubilities: Insoluble (solvent in which the compound is insoluble): value = solvent named in the Insoluble column
[4] = Photostability in solution in a chemical solvent (Suntest CPS+); conditions: 25 μg deposited from methanol, absorbance vs non-irradiated control, in % (unit assumed); for Photostability at 5 MED, mean: Suntest irradiation 5 MED; for Photostability at 10 MED, mean: Suntest irradiation 10 MED
Excerpt: A Suntest CPS+(Atlas, Linsengenicht/Altenhasslan, Germany) was used. The Suntest makes it possible to reproduce the solar spectrum and thus to carry out exposures inside at any time without weather constraints.
The radiance of the solar simulator was carefully measured with a spectroradiometer (MSS 2044, Bielefeld, Germany). UVB and UVA intensities were 0.49 mW/cm^2 and 6.32 mW/cm^2, respectively. The MED value defined by COLIPA is 5.6 J/cm^2 in total UV (22). The UV total (UVA+UVB) accounts for 14.8% of the energy delivered by the lamp (power 460 W/m^2). An irradiation dose equivalent to 1 MED corresponds to 37.83 J/cm^2 (in total spectrum) delivered by the lamp.
The Suntest test duration is calculated using the following formula: t=H/E with: • E=illumination energy in W/m^2 • H=irradiation dose in J/m^2 • t=duration of the test in s
The solutions of the compounds are prepared at a concentration of 500 μg/ml in methanol. 50 μl (25 μg) of each solution are deposited in a crystallizer, then irradiated in the Suntest at 5, 10 and/or 20 MED. A non-irradiated control is prepared (deposit of 50 μl of solution and addition of 2.450 ml of methanol). The solvent evaporates during irradiation and the products are taken up in 2.5 ml of methanol. After irradiation, the absorbance of each solution is measured with the UV-visible spectrophotometer (Varian CARY 50 Scan).

| Compound | Maximum molar extinction coefficient UVA [1] [M⁻¹ cm⁻¹] | Maximum molar extinction coefficient UVB [1] [M⁻¹ cm⁻¹] | Maximum specific absorbance UVA [1] | Maximum specific absorbance UVB [1] | Wavelength of maximum molar extinction coefficient UVA [1] | Wavelength of maximum molar extinction coefficient UVB [1] | Wavelength of maximum specific absorbance UVA [1] | Wavelength of maximum specific absorbance UVB [1] | Spectral distribution (UV bands absorbed) [2] | Solubilities: Soluble, DMSO [3] | Solubilities: Soluble, Transcutol [3] | Solubilities: Soluble (solvent in which the compound is soluble) [3] | Solubilities: Insoluble (solvent in which the compound is insoluble) [3] | Absorption peaks [2] [nm] | Photostability at 5 MED, mean [4] | Photostability at 10 MED, mean [4] | Solubility (%) ([3]; excipient Finsol V NT ® (C12-C15 alkyl benzoate)) | Solubility (%) ([3]; excipient Isopropyl adipate) | Solubility (%) ([3]; excipient Myritol 318 ® (caprylic/capric triglycerides)) |
| --- | --- | --- | --- | --- | --- | --- | --- | --- | --- | --- | --- | --- | --- | --- | --- | --- | --- | --- | --- |
| 1,4-bis[5,6-(4,4′-(2-{2-[2-(2-methoxy-ethoxy)-ethoxy]-ethoxy}-ethoxy)-)-diphenyl-1,2,4-triazin-3-yl]benzene [WP41] | 91400 | 72000 | 669 | 527 | at 330 nm | at 305 nm | at 330 nm | at 305 nm | absorb in UVB and UVA | DMSO 2.7% | Transcutol 0.1% | DMC and AcOEt (PS) and MeOH (PS) | EtOH and Hexane and Myritol |  |  |  |  |  |  |
| c1ccc(-c2nnc(-c3ccc(-c4nnc(-c5ccccc5)c(-c5ccccc5)n4)cc3)nc2-c2ccccc2)cc1 [WP30, 1,4-bis(5,6-diphenyl-1,2,4-triazin-3-yl)benzene] | 50200 |  | 928 |  | at 325 nm |  | at 325 nm |  | absorb in UVB and UVA |  |  | DMSO or hot DMF; also recorded: Ethyl acetate (PS) | Acetonitrile and Benzene and Myritol and Transcutol and Water and MeOH and CHCl3 and Acetone | 325 | 77.75 | 56.12 |  |  |  |
| Oc1ccc(-c2nnc(-c3ccc(-c4nnc(-c5ccc(O)cc5)c(-c5ccc(O)cc5)n4)cc3)nc2-c2ccc(O)cc2)cc1 [WP35, 1,4-bis[5,6-(4,4′-dihydroxy)-diphenyl-1,2,4-triazin-3-yl]benzene] | 27800 | 29600 | 460 | 490 | at 355 nm | at 310 nm | at 355 nm | at 310 nm | absorb in UVB and UVA | DMSO 3.5% | Transcutol 0.5% |  | MeOH and CHCl3 and Ethyl acetate and Hexane and Myritol | 355 |  |  |  |  |  |
| CCCCCCCCCCCCCCCCCCOc1ccc(-c2nnc(-c3ccc(-c4nnc(-c5ccc(OCCCCCCCCCCCCCCCCCC)cc5)c(-c5ccc(OCCCCCCCCCCCCCCCCCC)cc5)n4)cc3)nc2-c2ccc(OCCCCCCCCCCCCCCCCCC)cc2)cc1 [WP38, 1,4-bis[5,6-(4,4′-di-octadecyloxy)-diphenyl-1,2,4-triazin-3-yl]benzene] |  |  |  |  |  |  |  |  |  |  |  | Benzene; also recorded: Toluene; also recorded: Myritol; also recorded: Transcutol | MeOH and DMC and AcOEt |  |  |  |  |  |  |
| Cc1ccc(-c2nnc(-c3ccc(-c4nnc(-c5ccc(C)cc5)c(-c5ccc(C)cc5)n4)cc3)nc2-c2ccc(C)cc2)cc1 [WP39, 1,4-bis[5,6-(4,4′-dimethyl)-diphenyl-1,2,4-triazin-3-yl]benzene] | 48200 |  | 808 |  | at 335 nm |  | at 335 nm |  | absorb in UVB and UVA |  |  | DMSO or hot DMF | Water and MeOH and CHCl3 and Acetone and Acetonitrile and Benzene |  |  |  |  |  |  |
| COc1ccc(-c2nnc(-c3ccc(-c4nnc(-c5ccc(OC)cc5)c(-c5ccc(OC)cc5)n4)cc3)nc2-c2ccc(OC)cc2)cc1 [WP40, 1,4-bis[5,6-(4,4′-dimethoxy)-diphenyl-1,2,4-triazin-3-yl]benzene] |  |  |  |  |  |  |  |  |  |  |  | DMSO or hot DMF | Water and MeOH and CHCl3 and Acetone and Acetonitrile and Benzene |  |  |  |  |  |  |
| Brc1ccc(-c2nnc(-c3ccc(-c4nnc(-c5ccc(Br)cc5)c(-c5ccc(Br)cc5)n4)cc3)nc2-c2ccc(Br)cc2)cc1 [WP52, 1,4-bis[5,6-(4,4′-dibromo)-diphenyl-1,2,4-triazin-3-yl]benzene] | 57300 |  | 669 |  | at 330 nm |  | at 330 nm |  | absorb in UVB and UVA |  |  | DMSO or hot DMF | Water and MeOH and CHCl3 and Acetone and Acetonitrile and Benzene and Myritol and Transcutol | 330 |  |  |  |  |  |
| Fc1ccc(-c2nnc(-c3ccc(-c4nnc(-c5ccc(F)cc5)c(-c5ccc(F)cc5)n4)cc3)nc2-c2ccc(F)cc2)cc1 [WP89, 1,4-bis[5,6-(4,4′-difluoro)-diphenyl-1,2,4-triazin-3-yl]benzene] | 47700 |  | 778 |  | at 330 nm |  | at 330 nm |  | absorb in UVB and UVA |  |  | Ethyl acetate |  | 330 |  |  |  |  |  |
| Clc1ccc(-c2nnc(-c3ccc(-c4nnc(-c5ccc(Cl)cc5)c(-c5ccc(Cl)cc5)n4)cc3)nc2-c2ccc(Cl)cc2)cc1 [WP100, 1,4-bis[5,6-(4,4′-dichloro)-diphenyl-1,2,4-triazin-3-yl]benzene] | 43400 |  | 640 |  | at 300 nm |  | at 100 nm |  | absorb in UVB and UVA |  |  | Hot DMSO | DCM and Et2O and Toluene and Octanol and EtOH and Myritol and Transcutol | 300 |  |  |  |  |  |
| c1ccc(-c2nnc(-c3ccc(-c4ccc(-c5nnc(-c6ccccc6)c(-c6ccccc6)n5)cc4)cc3)nc2-c2ccccc2)cc1 [WP135] | 57000 |  | 924 |  | at 330 nm |  | at 330 nm |  | absorb in UVB and UVA |  |  |  |  | 330 | 57.45 | 33.66 |  |  |  |
| CCCCCC[C@H](C)Oc1ccc(-c2nnc(-c3ccc(-c4nnc(-c5ccc(O[C@@H](C)CCCCCC)cc5)c(-c5ccc(O[C@@H](C)CCCCCC)cc5)n4)cc3)nc2-c2ccc(O[C@@H](C)CCCCCC)cc2)cc1 [WP149, 1,4-bis[5,6-bis(4,1-methylheptyloxyphenyl)-1,2,4-triazine-3-yl]benzene] |  |  |  |  |  |  |  |  |  |  |  |  |  |  | 80.40 | 38.16 | 4.5 | 2 | 2.5 |

From patent US7816520B2, “5,6-diphenyl-1,2,4-triazinic dimeric derivatives and the use thereof in the form of sun-protective agents” (Pierre Fabre Dermo-Cosmetique, priority 2004, dated 2010)
